Measured values taken from patent US6656492B2, “Quick disintegrating tablet in buccal cavity and manufacturing method thereof” (Yamanouchi Pharmaceutical Co., Ltd., priority 2000, dated 2003).
Structures can show the parent of a compound that is named as a salt.

Experiment: Fluidity evaluation: angle of repose determination (fixed base cone method)
Assay type: physicochemical
Details: for fluidity (judgement in words): fixed base cone method
From the text: The term “fluidity” in the present Specification means adhesion and cohesion between particles or adhesion of a particle with a solid wall surface. Said “fluidity” can be put into numerical terms by, for instance, methods of determining the angle of repose of a powder. Methods of determining the angle of repose are known to those in the field, but the fixed base cone method by funnel is an example (for instance, “Yakuzaigaku,” Ryuichi Arita, Hitoshi Sezaki, editors (Kodansha Scientific), p. 182). […] R. L. Jr., Chemical Engineering, Jan. 18, p. 166, Table II, 1965).
[Fluidity evaluation: angle of repose determination] A funnel for pouring powder is placed above a table for determination of the angle of repose. The angle formed by the surface of a layer of accumulated powder and a horizontal plane when the powder is poured so that none remains in the funnel is determined and this angle (°) serves as the angle of repose.

| SMILES | fluidity (judgement in words) | angle of repose (determination performed with a vibrator) [°] |
| --- | --- | --- |
| Nc1c(Br)cc(Br)cc1CN[C@H]1CC[C@H](O)CC1 [amboxol hydrochloride, ambroxol hydrochloride] | could not be fed by funnel even using the vibrator |  |
| O=C([O-])[O-].[Ca+2] [calcium carbonate undiluted powder, calcium carbonate] | fluidity was not good | 50 |
| NC(N)=Nc1nc(CSCCC(N)=NS(N)(=O)=O)cs1 [famotidine undiluted powder, famotidine] | extremely inferior fluidity |  |
